Format in all cases: cell-based, human
One experiment concerns SNAIL1 in 769-P cells. Briefly: SNAIL1 protein expression (western blot), 769-P. Conditions: 72 h. How it is done: These properties could be the result of the modulation of the effectors controlling EMT, as previously shown in other tumor models. To test this hypothesis, the cells were treated with the inhibitors for 24, 48, and 72 h by changing the media every day, and they were tested for E-cadherin and SNAIL1 expression (Figure 6; detail information of western blots can be seen in Supplementary Figure S7). Figure 6 Effects of the peptides on E-cadherin and SNAIL1 protein expression: (a,b) protein expression of E-cadherin and SNAIL1 in 769-P and (c,d) A498 cells after 24, 48, and 72 h of treatment with the peptides. Data are represented as mean ± SD of at least three replicates. Significance was calculated through one-way ANOVA, followed by Dunnet’s test. Cells were seeded in RPMI containing 10% FBS and cultured for 24 h. Next, 30 µM of inhibitors were added to the culture medium and incubated for 24, 48, and 72 h. Control cells were treated with 0.01% DMSO. At all time points the samples were lysed in 50 mM Tri-HCl (pH 8.0), 100 mM NaCl, 0.5% NP-40, 1% Triton X-100, 1× protease inhibitor cocktail (ThermoFisher, Waltham, MA, USA). The 50 µg of protein lysates were separated by electrophoresis on a 12% SDS-PAGE gel and transferred to the PFDF membranes. […] After an additional wash (three times with PBS), reactive bands were detected by chemiluminescence (Bio-Rad, Irvine, CA, USA). […]
A general note: In western blotting, separated proteins are transferred to a membrane and probed.

The test system of the next experiment is 769-P cells. The experiment can be described thus: Cell viability with paclitaxel (MTT), 769-P. Conditions: peptide 20 µM combined with PXT 100 nM; versus PXT alone. The procedure: To evaluate the inhibitory properties of the peptides directly on the human renal cancer cells, we firstly assessed the impact of Ac-PLVE-FMK and Ac-VLPE-FMK on the cell viability of 769-P and A498 cells to determine the working concentrations for further experiments. […] Further experiments were performed using a concentration of 20 μM. To understand if the peptides could affect the activity of caspase proteases, we tested their effect on cell viability in combination with the chemotherapeutic paclitaxel (PXT) in both the cell lines. […] Next, we evaluated the effect of the peptides on renal cancer cell proteolytic activity against the fluorogenic probe Ac-PLVQ-AMC. In this case, 769-p and A498 cells were treated for 30 min with Ac-PLVE-FMK or Ac-VLPE-FMK and were then exposed for 10 min to the substrate Ac-PLVQ-AMC prior fluorescence microscopy analysis (Figure 3c,d).
The cell number was evaluated by counting viable cells using the MTT (3-(4,5-dimethylthiazol-2-yl)-2,5-diphenyltetrazolium bromide) colorimetric assay. A total of 2 × 10^4 cells/well were seeded on independent 96-well plates for each time point (0, 24, 48, and 72 h), with five replicates and treated with two inhibitors (2.5–250 μM). Then, 10 µL of the MTT reagent was added to each well, and cells were incubated for another 5 h. Next, the absorbance value was measured using a CLARIOstar® Plus plate reader (BMG Labtech, Ortenberg, Germany) at 490 nm. Triplicate wells were assayed, and S.D.s were determined.
Figure S3. Combined effect of PXT and the inhibitors on 769‐P proliferation: 769‐P cells were treated with 100 nM of PXT alone or in combination with 20 μM of Ac‐PLVE and Ac‐VLPE and cell proliferation was measured after 24, 48, and 72 h via MTT assay. Data represent the mean (± S.D.) of three independent experiments, each performed in triplicate.
Figure S4. Spheroids size and circularity: (a,b) size and circularity of 769‐P and (c,d) A498 cells upon treatment with Ac‐PLVE‐FMK and Ac‐VLPE‐FMK. Data represent the mean (± S.D.) of three independent experiments, each performed in triplicate. […]

The test system of experiment [1] is E-cadherin in 769-P cells. The experiment can be described thus: E-cadherin protein expression (western blot), 769-P. The procedure: These properties could be the result of the modulation of the effectors controlling EMT, as previously shown in other tumor models. To test this hypothesis, the cells were treated with the inhibitors for 24, 48, and 72 h by changing the media every day, and they were tested for E-cadherin and SNAIL1 expression (Figure 6; detail information of western blots can be seen in Supplementary Figure S7).  Figure 6 Effects of the peptides on E-cadherin and SNAIL1 protein expression: (a,b) protein expression of E-cadherin and SNAIL1 in 769-P and (c,d) A498 cells after 24, 48, and 72 h of treatment with the peptides. Data are represented as mean ± SD of at least three replicates. Significance was calculated through one-way ANOVA, followed by Dunnet’s test. Cells were seeded in RPMI containing 10% FBS and cultured for 24 h. Next, 30 µM of inhibitors were added to the culture medium and incubated for 24, 48, and 72 h. Control cells were treated with 0.01% DMSO. At all time points the samples were lysed in 50 mM Tri-HCl (pH 8.0), 100 mM NaCl, 0.5% NP-40, 1% Triton X-100, 1× protease inhibitor cocktail (ThermoFisher, Waltham, MA, USA). The 50 µg of protein lysates were separated by electrophoresis on a 12% SDS-PAGE gel and transferred to the PFDF membranes. The expression of cysteine Cts, LAMP-1, E-cadherin, and SNAIL1 were identified by a reaction with specific primary antibodies (CtsB-Ab190077, Abcam, UK; CtsL-Ab95154, Abcam, UK; CtsW Ab191083; LAMP-1- Ab24170, Abcam, UK; SNAIL1 Ab216347, Abcam, UK and e-cadherin-612131, BD Sciences Franklin Lakes, NJ, USA) which were resuspended in 5% non-fat milk in PBST (all Cts 1:3000, LAMP-1, SNAIL1 and E-cadherin 1:1000) and incubated O/N. The next day, the membranes were washed three times with PBST and incubated for 1 h with secondary antibodies (P-GAR Iss (Goat pAb to rabbit IgG (HRP), Abcam, UK or Rabbit Ab to mouse, Abcam, UK; both 1:5000) in 5% non-fat milk in PBST. After an additional wash (three times with PBS), reactive bands were detected by chemiluminescence (Bio-Rad, Irvine, CA, USA). As a loading control, the membranes were incubated with a polyclonal anti-tubulin antibody (1:5000; Ab52866, Abcam, UK) identically.

*: point of attachment. CH2F = FC*

The source of these data is article PMC7281206, “Cysteine Cathepsins Inhibition Affects Their Expression and Human Renal Cancer Cell Phenotype” (Cancers, 2020).

Ac-PLVE-CH2F [Ac-PLVE-FMK]: in the experiment with SNAIL1 in 769-P cells, the SNAIL1 protein expression result was “increased significantly at 72 h only in the case of 769P cells treated with AC-PLVE-FMK”. Moreover, the “Effect on cell viability in combination with PXT” value in the experiment with 769-P cells was “no significant differences were observed”. Besides, the E-cadherin protein expression entry in experiment [1] (72 h) is on record as “further increased in 769P cells”; in experiment [1] (first 48 h) it was “increased the protein expression of E-cadherin in the first 48 h in both the cell lines”.
The like results for Ac-VLPE-CH2F [Ac-VLPE-FMK] were, in that order, “dropped to values more similar to the control”, “no significant differences were observed”, “further increased in 769P cells” and “increased the protein expression of E-cadherin in the first 48 h in both the cell lines”.
